Legend:
Tenebrio molitor L = conditions: WO 2004/060065; cited from earlier work
[1] = tested on: Plutella xylostella L larvae; conditions: WO 2004/060065; cited from earlier work
[2] = tested on: larvae of Helicoverpa zea; conditions: Applied and Environmental Microbiology (1995), 61(12), 4429-35; cited from earlier work
Helicoverpa armigera = assay: Test Example 4: pesticidal effect against Helicoverpa armigera, cabbage leaf disk; type: in vivo; conditions: 100 ppm; third instar larva on cabbage leaf disk; three days after treatment, 25° C.
From the text: A cabbage leaf disk having a diameter of 2.8 cm was placed is in a plastic cup. Test compounds, which had been diluted to a predetermined concentration by the addition of a 50% aqueous acetone solution (Tween 20, 0.05% added), were spreaded over the cabbage leaf disk by means of a spray gun, and the cabbage leaf disk was then air dried. A larva at the third instar of Helicoverpa armigera was released in the cup. The cup was then lidded, and the larva was reared in the temperature-controlled room (25° C.). […] The test was repeated 5 times. Further, the death rate of the larvae were calculated in the same manner as in Test Example 1.

CC(=O)OCC1(C)C(OC(C)=O)CCC2(C)C1CC(OC(C)=O)C1(C)Oc3cc(-c4cccnc4)oc(=O)c3C(O)C21 (stereo not shown) [pyripyropene A]
insecticidal activity against Tenebrio molitor L (Tenebrio molitor L): insecticidal activity
insecticidal activity against Plutella xylostella L larvae [1]: insecticidal activity
insecticidal activity against larvae of Helicoverpa zea [2]: insecticidal activity

CC1(COC(=O)C2CCC2)C(OC(=O)C2CCC2)CCC2(C)C1CC(OC(=O)C1CCC1)C1(C)Oc3cc(-c4cccnc4)oc(=O)c3C(O)C21 (stereo not shown) [Compound 219]
death rate of larvae (Helicoverpa armigera): not less than 80%
